Where no end group is shown, it is not given here.
Key:
[1] = molecular target: glyceraldehyde 3-phosphate dehydrogenase (Homo sapiens, UniProt P04406); assay: Enzymatic effect in vitro: lifting of somantine inhibition of glyceraldehyde 3-phosphate dehydrogenase; assay type: biochemical
Protocol: In this test, the compound (I) was tested for its ability to raise the inhibition of a somantine extracted from a plasma with respect to the action of glyceraldehyde 3-phosphate dehydrogenase.
To this end, the activity of the enzyme in the presence successively of somantine alone, of the compound (1) alone, and finally in the presence of somantine and of the compound (I), were measured.
In this test, the glyceraldehyde 3-phosphate dehydrogenase was used at a concentration of […], the somantine at 25 μg/ml, and the compound (I) at 50 μg/ml.
The method used for the measurements is that of Pihl and Lang (J. Biol. Chem 237 : 1356 - 1362, 1962).
The percentage of inhibition of the enzyme found under these conditions is as follows: […]

[2] = system: isolated hemidiaphragm of the rat; assay: Consumption of glucose in vitro, isolated rat hemidiaphragm; assay type: cell-based, Wistar albino male rats
Protocol: To follow this consumption, the isolated hemidiaphragm of the rat in vitro was used. The method employed is that described by Park et al. (Effect of insulin on free glucose content of rat diaphragm in vitro -- Amer. J. Physiol. 182 : 12 - 16, 1955). The hemidiaphragm derived from Wistar albino male rats each weighing 200 to 250 g was used. The rats were fed freely for 7 days and then starved for 24 hours. The solutions studied contained 2 mg/ml of glucose, 500 μU/ml of insulin. The compound (I) was introduced at 250 μg/ml. The consumption of glucose related to the weight of tissue in grams and per hour was under these conditions: […]

adult rabbits = assay: Effect on the in vivo effect of insulin: intravenous glucose tolerance in the rabbit
Protocol: The assays were carried out in the course of the tests carried out to determine the resistance to glucose injected by the intravenous route in the rabbit.
These tests were done on adult rabbits, which had been subjected to prior fasting for 24 hours. Blood was drawn off and the glucose level in the blood samples was determined. The measurement was carried out by the ferricyanide method as adapted for the "Technicon Autoanalyser" (J. Biol. Chem. 120 : 51 - 55, 1937). In this way the glucose level on fasting, then its variation after the intravenous injection of glucose, at the dose of 1 gram per kilo, was determined. These measurements were then renewed in rabbits which had received, 5 minutes after the glucose, an intravenous injection of the compound (1) (5μg/kg).

mice [3] = assay: Influence on glycemia in mice after glucose injection; assay type: in vivo
Excerpt: d. Influence of octapeptide (I) on glycemia has been determined in mice under conditions similar to those described for rabbits. The experiment included two series of tests aimed at studying the immediate effects and the prolonged effects.
In the first series of tests, a simultaneous injection of glucose and of the octapeptide (1) was made, and the lowering of glycemia with respect to that of control animals which had not received glucose, was followed as a function of time.
The injections were respectively of 0.25 g of glucose and 2 mg per kilo of body weight of the animal, namely about 40 μg, of octapeptide (I) or […].
In the second series of tests, the mice received the product before the injection of glucose. Three injections each of 40μg of octapeptide (1) were administered respectively 72, 48 and 24 hous before the injection of glucose.

diabetic rats = assay: Effect on glycemia in diabetic animals; assay type: in vivo; settings: glucose 0.5 g/kg; for course of glycemia after simultaneous injection with glucose: diabetic rats fasted 4 hours, octapeptide 2 μg/g
Protocol: In this test, the drop in glycemia was compared after the simultaneous injection of glucose, on the one hand, and, on the other hand, either of the octapeptide at the dosage of 2 μg (I), or of insulin, or again of both at once. In that latter case the dosage of octapeptide used was also 2μg/g. The tests were carried out on diabetic rats, kept fasting for 4 hours before the injection of glucose (at the dose of 0.5 g/kg of animal).

[4] = system: insulin receptors of lipid cells; assay: Insulin binding to trypsinated lipid cells; assay type: cell-based; settings: octapeptide introduced into the medium; trypsinated cells alone no longer fix insulin
Excerpt: In an attempt to elucidate the mechanism of action of the octapeptide (I) with respect to insulin, the phenomena were first studied at the level of the insulin receptors of lipid cells trypsinated to destroy said receptors.

hepatic cells = assay: Insulin binding to hepatic cells; assay type: cell-based
Protocol: In the same way, the ratio of insulin binding to hepatic cells placed in a suitable reaction medium was measured. When the medium contains octapeptide (I), the ratio of insulin binding to the hepatic cells increases. The result is similar if the said cells are incubated with octapeptide (I).

[5] = system: glucose receptors of the Langerhans islets; assay: Glucose-stimulated insulin liberation from Langerhans islets of treated animals; assay type: cell-based; settings: islets removed one day or four days after injection of octapeptide; versus controls
Protocol: Finally, the effect of the octapeptide (I) on the glucose receptors of the Langerhans islets was determined. For this purpose, the octapeptide (I) was injected into animals.
One day or four days later, the animals were killed and the islets of Langerhans removed. The latter were placed in a reaction medium supplemented with glucose, and the amount of insulin liberated was determined and compared tocontrols.

mice [6] = assay: Tolerance: acute and subacute toxicity study in mice; assay type: in vivo; settings: 1 month, daily dosages 5 to 10 times the active dosage
Protocol: An acute and subacute toxicity study was carried out on mice for 1 month, each mouse receiving daily dosages corresponding to 5 to 10 times the active dosage.

Sequence of glyceraldehyde 3-phosphate dehydrogenase (P04406 whole entry, species assumed): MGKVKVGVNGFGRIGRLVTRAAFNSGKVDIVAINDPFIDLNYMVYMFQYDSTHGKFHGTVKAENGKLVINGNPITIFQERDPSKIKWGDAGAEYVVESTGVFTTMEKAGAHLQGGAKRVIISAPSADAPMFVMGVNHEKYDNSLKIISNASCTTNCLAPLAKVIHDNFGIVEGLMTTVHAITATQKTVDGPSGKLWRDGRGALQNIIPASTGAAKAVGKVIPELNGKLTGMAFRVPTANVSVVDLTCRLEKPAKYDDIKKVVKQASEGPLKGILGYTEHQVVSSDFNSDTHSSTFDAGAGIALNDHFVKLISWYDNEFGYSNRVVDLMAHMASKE

Substance	effect on the inhibiting effect of somantine (in words) ([1]; compound (I) 50 μg/ml together with somantine 25 μg/ml)	effect on the activity of the enzyme (in words) ([1]; compound (I) alone, 50 μg/ml)	inhibition at 50 µg/mL ([1]; enzyme 0.5 μml, somantine 25 μg/ml, compound (I) 50 μg/ml, read-out: percentage of inhibition of the enzyme) [%]	consumption of glucose in the presence of insulin (in words) ([2]; compound (I) 250 μg/ml added to glucose + insulin)	glucose level reached, compared with fasting level (adult rabbits; glucose 1 g/kg i.v., compound 5 μg/kg i.v.)	decrease in the glucose level after i.v. glucose (adult rabbits; glucose 1 g/kg i.v., compound 5 μg/kg i.v. 5 minutes after glucose, versus rabbits without compound)	persistence of effect on the carbohydrate metabolism after injection (adult rabbits; similar tests at intervals of several days)	drop in glycemia, immediate effect (mice [3]; simultaneous injection of glucose and about 40 μg octapeptide, versus controls)	drop in glycemia, prolonged effect (mice [3]; three injections of 40 μg at 72, 48 and 24 hours before glucose, versus controls receiving only glucose)	course of glycemia after simultaneous injection with glucose (diabetic rats)	insulin binding to trypsinated lipid cells [4]	ratio of insulin binding to hepatic cells (hepatic cells; cells incubated with octapeptide (I))	ratio of insulin binding to hepatic cells (hepatic cells; medium contains octapeptide (I))	level of insulin liberated by Langerhans islets in glucose-supplemented medium [5]	toxic effect, macro and microscopic studies (mice [6])	Consumption of glucose ([2]; related to weight of tissue in grams and per hour, glucose 2 mg/ml, insulin 500 μU/ml, compound (I) 250 μg/ml) [mg]	time after which glycemia rises again (diabetic rats; diabetic rats)
LSRLFDNA [compound (I), leucyl--seryl--arginyl--leucyl--phenylalanyl--aspartyl--asparaginyl-alanine]	partly suppressed	practically without effect	1	increased	less than those which were measured in the fasting rabbits	greater	persists several days	distinctly more accentuated	more rapid drop in glycemia	practically unmodified	the binking reasppears	similar	increases	very substantial increase	not shown any toxic effect	–	–
insulin: insulin, 500 μU/ml in glucose solution in the hemidiaphragm test	–	–	–	–	–	–	–	–	–	decreases rapidly, stabilises, then rises again	–	–	–	–	–	4.10 ± 0.15	about 120 minutes
